Tests used:
[1] = target: T1, Alpha-2A adrenergic receptor (Homo sapiens, UniProt P08913); type: cell membranes, Sf9, Membrane; conditions: sf9; also: in other assays of this panel Not Active means under 50% inhibition at 10 µM
T1 sequence (P08913 whole entry): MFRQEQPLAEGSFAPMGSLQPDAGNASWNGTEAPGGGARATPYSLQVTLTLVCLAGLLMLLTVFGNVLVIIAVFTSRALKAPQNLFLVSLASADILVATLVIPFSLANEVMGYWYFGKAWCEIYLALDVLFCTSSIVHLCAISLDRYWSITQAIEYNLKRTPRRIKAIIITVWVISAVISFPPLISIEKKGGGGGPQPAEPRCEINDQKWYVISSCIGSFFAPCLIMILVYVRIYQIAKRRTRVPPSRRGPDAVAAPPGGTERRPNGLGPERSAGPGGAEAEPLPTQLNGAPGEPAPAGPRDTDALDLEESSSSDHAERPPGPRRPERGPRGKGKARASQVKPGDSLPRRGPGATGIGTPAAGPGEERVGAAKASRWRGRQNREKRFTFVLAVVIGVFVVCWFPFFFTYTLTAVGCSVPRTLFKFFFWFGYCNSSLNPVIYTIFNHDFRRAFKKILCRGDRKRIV

[2] = target: T2, Calcitonin receptor (Homo sapiens, UniProt P30988); type: cell membranes, Membrane; conditions: t47d; also: in other assays of this panel Not Active means under 50% inhibition at 10 µM
T2 sequence (P30988 whole entry): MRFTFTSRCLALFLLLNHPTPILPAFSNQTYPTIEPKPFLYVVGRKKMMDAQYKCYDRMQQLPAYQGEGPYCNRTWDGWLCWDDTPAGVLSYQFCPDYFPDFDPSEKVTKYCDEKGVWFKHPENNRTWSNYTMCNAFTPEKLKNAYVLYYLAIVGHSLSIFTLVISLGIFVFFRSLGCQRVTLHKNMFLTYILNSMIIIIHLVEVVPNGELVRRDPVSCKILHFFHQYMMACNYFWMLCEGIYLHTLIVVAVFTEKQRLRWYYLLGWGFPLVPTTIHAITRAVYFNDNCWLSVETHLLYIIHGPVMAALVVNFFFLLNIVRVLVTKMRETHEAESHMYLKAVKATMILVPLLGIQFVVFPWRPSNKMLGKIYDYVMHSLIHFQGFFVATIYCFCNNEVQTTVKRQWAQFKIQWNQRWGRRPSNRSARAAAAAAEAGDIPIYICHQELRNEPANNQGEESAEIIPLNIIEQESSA

[3] = target: Sigma non-opioid intracellular receptor 1 (Homo sapiens, UniProt Q99720); assay: DRUGMATRIX: Sigma1 radioligand binding (ligand: [3H] Haloperidol); type: cell membranes, Jurkat, Membrane; conditions: jurkat; Not Active = under 50% inhibition at 10 µM
[4] = target: Substance-P receptor (Homo sapiens, UniProt P25103); type: cell membranes, CHO, Membrane; conditions: cho; also: in other assays of this panel Not Active means under 50% inhibition at 10 µM
[5] = DRUGMATRIX: Glutamate, NMDA, Agonism radioligand binding (ligand: [3H] CGP-39653); type: cell membranes, Rattus norvegicus, Wistar, Cerebral cortex, Membrane; conditions: Not Active = under 50% inhibition at 10 µM
[6] = target: Mitogen-activated protein kinase 3 (Homo sapiens, UniProt P27361); assay: DRUGMATRIX: Protein Serine/Threonine Kinase, ERK1 enzyme inhibition (substrate: Myelin Basic Protein); parameters: species or system Escherichia coli; conditions: Not Active = under 50% inhibition at 10 µM
Chain of Mitogen-activated protein kinase 3 (P27361 whole entry): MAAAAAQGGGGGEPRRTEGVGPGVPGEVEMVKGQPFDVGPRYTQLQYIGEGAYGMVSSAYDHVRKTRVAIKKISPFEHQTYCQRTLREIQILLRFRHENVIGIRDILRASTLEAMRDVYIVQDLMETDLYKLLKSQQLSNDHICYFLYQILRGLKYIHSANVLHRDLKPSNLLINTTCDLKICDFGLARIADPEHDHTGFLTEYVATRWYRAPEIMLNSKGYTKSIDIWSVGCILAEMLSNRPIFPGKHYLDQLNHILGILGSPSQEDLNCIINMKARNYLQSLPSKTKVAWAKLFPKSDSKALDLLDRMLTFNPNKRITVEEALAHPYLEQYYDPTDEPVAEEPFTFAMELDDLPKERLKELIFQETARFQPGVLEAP

Chain of Substance-P receptor (P25103 whole entry): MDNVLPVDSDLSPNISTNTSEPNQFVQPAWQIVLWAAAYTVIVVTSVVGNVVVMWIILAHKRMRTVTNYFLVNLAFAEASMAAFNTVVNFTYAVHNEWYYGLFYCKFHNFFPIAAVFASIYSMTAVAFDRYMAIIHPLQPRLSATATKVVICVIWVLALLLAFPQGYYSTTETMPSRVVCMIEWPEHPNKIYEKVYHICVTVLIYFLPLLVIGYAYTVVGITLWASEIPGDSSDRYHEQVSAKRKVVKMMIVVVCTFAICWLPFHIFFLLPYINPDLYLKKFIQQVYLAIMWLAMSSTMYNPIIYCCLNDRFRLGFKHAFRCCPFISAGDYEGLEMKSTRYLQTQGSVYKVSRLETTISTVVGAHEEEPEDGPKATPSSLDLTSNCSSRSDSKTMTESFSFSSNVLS
Chain of Sigma non-opioid intracellular receptor 1 (Q99720 whole entry): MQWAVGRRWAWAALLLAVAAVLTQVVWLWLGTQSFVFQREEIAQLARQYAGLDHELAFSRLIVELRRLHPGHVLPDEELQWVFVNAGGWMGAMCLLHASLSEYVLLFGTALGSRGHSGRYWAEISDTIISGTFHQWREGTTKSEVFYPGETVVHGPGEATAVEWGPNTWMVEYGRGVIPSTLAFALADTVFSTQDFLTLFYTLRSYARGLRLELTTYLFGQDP

MANGANESE CHLORIDE ANHYDROUS
Not Active: IC50 [1] | Ki [1] | IC50 [2] | Ki [2] | IC50 [3] | Ki [3] | IC50 [4] | Ki [4] | IC50 [5] | Ki [5] | IC50 [6] | Ki [6]

SODIUM ORTHOVANAD
Not Active: IC50 [1] | Ki [1] | IC50 [2] | Ki [2] | IC50 [3] | Ki [3] | IC50 [4] | Ki [4] | IC50 [5] | Ki [5] | IC50 [6] | Ki [6]
